{"source": "paper PMC4791539", "about": "“Crystal structure of Anoxybacillus α-amylase provides insights into maltose binding of a new glycosyl hydrolase subclass” (Scientific Reports, 2016)", "molecular_target": "T1, TASKA (truncated ASKA) (Anoxybacillus ayderensis, UniProt I1VWH9)", "T1 construct": "signal peptide (1-23) and predicted C-terminal transmembrane region (479-505) removed; 6xHis tags at N- and C-termini (pET-28a); E. coli BL21(DE3); monomer in asymmetric unit", "T1 sequence (I1VWH9 24-478)": "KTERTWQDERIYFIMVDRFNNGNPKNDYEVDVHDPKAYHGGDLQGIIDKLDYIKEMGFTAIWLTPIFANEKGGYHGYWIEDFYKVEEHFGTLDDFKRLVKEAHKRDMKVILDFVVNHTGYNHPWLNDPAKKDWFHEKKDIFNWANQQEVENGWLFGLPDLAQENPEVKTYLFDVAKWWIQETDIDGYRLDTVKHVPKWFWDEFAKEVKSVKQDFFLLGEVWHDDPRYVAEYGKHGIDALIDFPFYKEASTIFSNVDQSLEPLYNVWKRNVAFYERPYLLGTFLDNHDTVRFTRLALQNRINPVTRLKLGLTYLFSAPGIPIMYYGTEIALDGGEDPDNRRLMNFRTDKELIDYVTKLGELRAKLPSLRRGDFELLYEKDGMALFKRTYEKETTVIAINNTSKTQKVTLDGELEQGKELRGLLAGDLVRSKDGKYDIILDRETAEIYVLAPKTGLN", "assay": "UPLC-ELSD product analysis", "format": "biochemical", "conditions": "hydrolysed to glucose and maltose; co-crystal (TASKA-T) shows only maltose", "data": [{"smiles": "OC[C@H]1O[C@H](O[C@H]2[C@H](O)[C@@H](O)[C@@H](O[C@H]3[C@H](O)[C@@H](O)C(O)O[C@@H]3CO)O[C@@H]2CO)[C@H](O)[C@@H](O)[C@@H]1O", "note": "(stereo partly shown) [maltotriose]", "values": [{"measurement": "UPLC-ELSD product analysis", "value": "glucose and maltose were produced following the hydrolysis of maltotriose"}]}]}
